Several values for one entry are separate records, joined by “and”; a condition that tells them apart may be missing. Equal values may be shown once.
Legend:
[1] = target: T1, EPHA6 (Homo sapiens, UniProt Q9UF33); test: KINOMEscan active-site competitive binding assay; details: slash = two separate measurements
T1 construct: purchased DiscoveRx (KINOMEscan service)
T1 sequence (Q9UF33 23-1036): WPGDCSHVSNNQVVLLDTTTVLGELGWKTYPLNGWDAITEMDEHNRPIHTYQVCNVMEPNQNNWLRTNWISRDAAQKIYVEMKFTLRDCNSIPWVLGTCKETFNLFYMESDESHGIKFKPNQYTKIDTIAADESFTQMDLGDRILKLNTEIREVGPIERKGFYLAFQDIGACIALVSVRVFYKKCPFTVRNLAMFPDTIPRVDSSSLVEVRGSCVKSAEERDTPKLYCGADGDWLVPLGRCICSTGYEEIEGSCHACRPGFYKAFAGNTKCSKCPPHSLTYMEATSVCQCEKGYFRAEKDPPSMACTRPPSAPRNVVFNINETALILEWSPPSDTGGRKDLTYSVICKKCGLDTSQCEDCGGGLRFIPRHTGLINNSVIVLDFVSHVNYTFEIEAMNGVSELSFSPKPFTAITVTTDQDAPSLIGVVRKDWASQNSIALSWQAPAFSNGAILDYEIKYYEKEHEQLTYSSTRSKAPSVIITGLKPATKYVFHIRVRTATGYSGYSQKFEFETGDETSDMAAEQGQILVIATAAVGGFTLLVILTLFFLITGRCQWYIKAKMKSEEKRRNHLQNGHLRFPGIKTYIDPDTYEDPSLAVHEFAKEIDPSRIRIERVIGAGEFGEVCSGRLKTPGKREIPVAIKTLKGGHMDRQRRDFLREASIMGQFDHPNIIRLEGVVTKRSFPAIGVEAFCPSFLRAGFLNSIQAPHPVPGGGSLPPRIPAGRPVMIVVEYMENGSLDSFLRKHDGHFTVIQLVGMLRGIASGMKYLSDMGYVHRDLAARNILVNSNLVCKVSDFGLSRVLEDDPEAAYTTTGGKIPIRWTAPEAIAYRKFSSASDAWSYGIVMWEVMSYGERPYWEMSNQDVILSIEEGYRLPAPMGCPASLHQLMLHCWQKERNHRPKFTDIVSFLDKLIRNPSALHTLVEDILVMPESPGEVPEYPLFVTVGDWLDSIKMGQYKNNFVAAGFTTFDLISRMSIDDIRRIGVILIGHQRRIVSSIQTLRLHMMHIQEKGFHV

[2] = target: T2, FRK (Homo sapiens, UniProt P42685); test: KINOMEscan active-site competitive binding assay; details: slash = two separate measurements
T2 construct: purchased DiscoveRx (KINOMEscan service)

[3] = Plasma protein binding in vitro (Transil), human plasma; type: in vitro ADME; details: for Proportion of protein‐bound drug / Unbound fraction, fold lower than that of regorafenib / Major plasma protein to which the compound was bound: human plasma; for Major plasma protein to which the compound was bound: data not shown; for Unbound fraction, fold lower in human than in murine plasma: human versus murine plasma
Protocol: A radioactivity analysis was performed by liquid scintillation counting. […] All compounds were tested for stability at the incubation conditions used.

[4] = target: T3, TAOK3 (Homo sapiens, UniProt Q9H2K8); test: KINOMEscan active-site competitive binding assay; details: slash = duplicate values
T3 construct: purchased DiscoveRx
T3 sequence (Q9H2K8 1-898): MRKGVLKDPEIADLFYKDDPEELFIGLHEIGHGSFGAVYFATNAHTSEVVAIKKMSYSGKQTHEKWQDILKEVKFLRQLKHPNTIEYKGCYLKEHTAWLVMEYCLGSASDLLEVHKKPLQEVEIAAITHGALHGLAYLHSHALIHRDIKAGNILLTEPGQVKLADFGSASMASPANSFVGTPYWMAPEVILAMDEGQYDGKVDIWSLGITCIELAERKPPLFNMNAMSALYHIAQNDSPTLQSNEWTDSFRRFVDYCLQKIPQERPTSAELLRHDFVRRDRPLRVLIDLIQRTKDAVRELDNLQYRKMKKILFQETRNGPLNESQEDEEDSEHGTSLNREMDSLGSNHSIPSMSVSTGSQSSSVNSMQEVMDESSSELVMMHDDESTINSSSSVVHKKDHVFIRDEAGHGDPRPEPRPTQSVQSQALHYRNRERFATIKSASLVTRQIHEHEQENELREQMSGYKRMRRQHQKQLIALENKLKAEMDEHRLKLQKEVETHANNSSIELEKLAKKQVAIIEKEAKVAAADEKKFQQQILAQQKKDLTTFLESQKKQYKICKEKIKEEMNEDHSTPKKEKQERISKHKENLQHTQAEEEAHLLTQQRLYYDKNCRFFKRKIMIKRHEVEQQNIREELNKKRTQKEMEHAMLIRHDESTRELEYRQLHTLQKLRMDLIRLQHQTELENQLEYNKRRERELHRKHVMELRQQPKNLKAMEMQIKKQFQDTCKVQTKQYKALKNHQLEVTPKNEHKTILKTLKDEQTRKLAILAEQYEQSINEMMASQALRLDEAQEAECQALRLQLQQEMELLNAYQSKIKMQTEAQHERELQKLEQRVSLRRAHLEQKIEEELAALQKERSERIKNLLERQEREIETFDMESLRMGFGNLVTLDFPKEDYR

[5] = target: T4, CDKL2 (Homo sapiens, UniProt Q92772); test: KINOMEscan active-site competitive binding assay; details: slash = two separate measurements
T4 construct: purchased DiscoveRx (KINOMEscan service)
T4 sequence (Q92772 1-493): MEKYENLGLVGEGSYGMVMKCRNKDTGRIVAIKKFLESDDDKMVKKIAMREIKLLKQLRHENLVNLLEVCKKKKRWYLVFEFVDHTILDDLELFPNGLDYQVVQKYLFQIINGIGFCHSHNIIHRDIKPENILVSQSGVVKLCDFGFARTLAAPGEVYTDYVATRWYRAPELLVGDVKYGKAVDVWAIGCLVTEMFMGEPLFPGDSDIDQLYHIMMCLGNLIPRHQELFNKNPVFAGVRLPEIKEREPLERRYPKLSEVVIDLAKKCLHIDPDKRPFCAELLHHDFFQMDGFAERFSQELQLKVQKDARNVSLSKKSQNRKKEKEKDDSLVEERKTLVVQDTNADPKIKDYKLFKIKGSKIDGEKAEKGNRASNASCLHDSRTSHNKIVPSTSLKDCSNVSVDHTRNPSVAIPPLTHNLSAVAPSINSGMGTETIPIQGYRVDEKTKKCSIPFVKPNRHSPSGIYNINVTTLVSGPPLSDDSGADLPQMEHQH

[6] = target: T5, TIE-1 (Homo sapiens, UniProt P35590); test: KINOMEscan active-site competitive binding assay; details: slash = two separate measurements
T5 construct: purchased DiscoveRx

[7] = target: T6, CDK11 (Homo sapiens, UniProt Q9BWU1); test: KINOMEscan active-site competitive binding assay; details: slash = two separate measurements
T6 construct: purchased DiscoveRx (KINOMEscan service)

[8] = human, male, plasma, arithmetic mean ± SD

T6 sequence (Q9BWU1 whole entry): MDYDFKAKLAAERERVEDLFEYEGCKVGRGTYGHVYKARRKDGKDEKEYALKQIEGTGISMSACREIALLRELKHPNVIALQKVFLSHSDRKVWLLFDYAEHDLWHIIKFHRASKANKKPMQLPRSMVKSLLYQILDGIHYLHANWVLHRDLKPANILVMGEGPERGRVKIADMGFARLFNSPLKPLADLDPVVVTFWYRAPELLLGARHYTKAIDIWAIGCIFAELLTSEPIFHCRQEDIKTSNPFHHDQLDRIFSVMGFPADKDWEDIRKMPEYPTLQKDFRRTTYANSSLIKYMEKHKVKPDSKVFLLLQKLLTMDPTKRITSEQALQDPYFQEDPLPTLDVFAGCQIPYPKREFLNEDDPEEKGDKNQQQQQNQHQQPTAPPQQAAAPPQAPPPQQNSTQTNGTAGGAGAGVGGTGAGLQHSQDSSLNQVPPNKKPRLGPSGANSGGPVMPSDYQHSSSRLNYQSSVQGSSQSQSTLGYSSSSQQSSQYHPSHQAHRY
T2 sequence (P42685 whole entry): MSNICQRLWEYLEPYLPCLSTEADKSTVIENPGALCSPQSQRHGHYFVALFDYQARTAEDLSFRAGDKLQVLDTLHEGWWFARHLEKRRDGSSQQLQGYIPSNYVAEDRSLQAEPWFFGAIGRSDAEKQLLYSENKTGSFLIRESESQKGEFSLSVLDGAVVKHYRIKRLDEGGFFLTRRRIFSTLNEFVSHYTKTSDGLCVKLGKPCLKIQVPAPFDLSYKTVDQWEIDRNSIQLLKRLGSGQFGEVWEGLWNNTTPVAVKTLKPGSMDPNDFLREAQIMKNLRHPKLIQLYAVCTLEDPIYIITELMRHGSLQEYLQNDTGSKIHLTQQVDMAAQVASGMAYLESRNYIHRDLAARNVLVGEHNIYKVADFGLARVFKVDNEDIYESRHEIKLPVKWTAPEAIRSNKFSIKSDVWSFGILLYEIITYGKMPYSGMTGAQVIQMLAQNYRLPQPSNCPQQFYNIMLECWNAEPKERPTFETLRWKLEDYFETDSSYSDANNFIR
T5 sequence (P35590 22-1138): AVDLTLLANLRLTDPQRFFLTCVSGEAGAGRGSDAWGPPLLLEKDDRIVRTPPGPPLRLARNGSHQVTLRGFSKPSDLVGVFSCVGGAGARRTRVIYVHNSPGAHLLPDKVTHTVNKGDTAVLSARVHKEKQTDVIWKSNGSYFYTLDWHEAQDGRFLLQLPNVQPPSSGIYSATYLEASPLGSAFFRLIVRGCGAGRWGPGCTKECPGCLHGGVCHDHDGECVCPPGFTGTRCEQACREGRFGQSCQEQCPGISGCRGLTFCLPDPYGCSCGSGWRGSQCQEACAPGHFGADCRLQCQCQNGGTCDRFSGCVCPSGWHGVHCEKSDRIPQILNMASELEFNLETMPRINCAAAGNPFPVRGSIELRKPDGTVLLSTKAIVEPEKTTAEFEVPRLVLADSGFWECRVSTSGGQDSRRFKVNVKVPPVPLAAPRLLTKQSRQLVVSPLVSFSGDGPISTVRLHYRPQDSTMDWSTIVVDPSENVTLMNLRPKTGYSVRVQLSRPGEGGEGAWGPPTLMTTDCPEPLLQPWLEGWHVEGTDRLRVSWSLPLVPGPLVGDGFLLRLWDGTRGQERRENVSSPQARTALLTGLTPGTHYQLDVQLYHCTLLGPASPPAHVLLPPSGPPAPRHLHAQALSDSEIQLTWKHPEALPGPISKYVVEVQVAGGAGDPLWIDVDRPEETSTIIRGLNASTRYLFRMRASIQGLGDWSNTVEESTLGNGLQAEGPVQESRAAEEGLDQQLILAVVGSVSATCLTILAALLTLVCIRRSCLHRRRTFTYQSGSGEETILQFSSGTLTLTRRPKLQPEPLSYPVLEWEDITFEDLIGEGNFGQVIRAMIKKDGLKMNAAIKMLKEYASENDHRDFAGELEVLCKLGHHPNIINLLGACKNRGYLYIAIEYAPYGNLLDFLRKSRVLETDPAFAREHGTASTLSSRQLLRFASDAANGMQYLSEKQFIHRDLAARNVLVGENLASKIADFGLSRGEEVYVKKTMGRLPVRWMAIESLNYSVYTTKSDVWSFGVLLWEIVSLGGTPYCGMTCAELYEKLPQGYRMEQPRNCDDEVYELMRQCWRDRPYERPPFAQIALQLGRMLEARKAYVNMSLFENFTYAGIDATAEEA

| Structure (SMILES) | Kd [1] | Kd [2] | Proportion of protein‐bound drug [3] | Unbound fraction, fold lower than that of regorafenib [3] | Major plasma protein to which the compound was bound [3] | Unbound fraction, fold lower in human than in murine plasma [3] | Unbound fraction (%) [3, 8] | Kd [4] | Kd [5] | Kd [6] | Kd [7] | fraction unbound ([3]; male, human, plasma, arithmetic mean ± SD) |
| --- | --- | --- | --- | --- | --- | --- | --- | --- | --- | --- | --- | --- |
| CNC(=O)c1cc(Oc2ccc(NC(=O)Nc3ccc(Cl)c(C(F)(F)F)c3)c(F)c2)cc[n+]1[O-] [M‐2] | 0.21 µM | 0.042 µM | more than 99% | about 2.5 fold | albumin | ~ 5 fold | 0.188 ± 0.004% | 0.094 µM and 0.077 µM | 0.076 µM | 0.048 µM | 0.033 µM | – |
| NC(=O)c1cc(Oc2ccc(NC(=O)Nc3ccc(Cl)c(C(F)(F)F)c3)c(F)c2)cc[n+]1[O-] [M‐5] | 0.64 µM | 0.024 µM | more than 99% | approximately 10 fold | albumin | ~ 8 fold | 0.053 ± 0.013% | 0.45 µM | 1.1 µM | 0.073 µM | 0.086 µM | – |
| CNC(=O)c1cc(Oc2ccc(NC(=O)Nc3ccc(Cl)c(C(F)(F)F)c3)c(F)c2)ccn1 [Regorafenib, reference compound] | 0.048 µM and 0.023 µM | 0.069 µM and 0.042 µM | more than 99% | – | albumin | – | 0.488 ± 0.091% | 0.2 µM and 0.29 µM | 0.048 µM and 0.058 µM | 0.03 µM and 0.027 µM | 0.067 µM and 0.043 µM | ~0.005 |

— PMC5119973 (Cancer Medicine, 2016)
